Results taken from patent publication EP1344776A1, “5- 2-hydroxy-3-[1-(3-trifluoromethylphenyl)-cyclopropyl]-propionylamino -phtalide and 6- 2-hydroxy-3-[1-(3-trifluoromethylphenyl)-cyclopropyl]-propionylamino -4-methyl-2,3-benzoxazin-1-one derivatives with progesterone receptor modulating activity for use in fertility control, hormone replacement …” (Schering Aktiengesellschaft, priority 2002, dated 2003).
Like-named read-outs stand apart in the source and are kept apart here.

How the values were obtained:
[1] = tested on: juvenile female rabbits; assay: Endometrial transformation in rabbit (Clauberg test); type: in vivo; settings: for McPhail Index: scores 1 to 4; for minimal effective dose: Oryctolagus cuniculus, read-out: Threshold Value
[2] = tested on: female rats; assay: Ovulation inhibition test in rat; type: in vivo
Experimental: Before the treatment is started, two […] cycles of female rats (weight: 190 to 210 g) were monitored. Only animals having a regular 4 day-cycle are used for the subsequent test. Starting in the metoestrus, the test compound is administered for 4 days (day 1 to 4) and the cycle is controlled thereafter.
For subcutaneous application, the test compounds are dissolved in benzyl benzoate/castor oil (1+9 v/v) and the daily dose is administered in a volume of 1 ml/kg body weight.
For peroral application, the test compounds are suspended in a carrier liquid (85 mg Myrj^R in 100 ml 0.9 % w/v NaCl solution) and the daily dose is administered in a volume of 2 ml/kg body weight.
On day 4, after the application of the test compound, those animals having estrus or metoestrus are ovariectomized under ether anesthesia on one side. Preparations of the tubes are prepared and they are investigated for ova by means of microscope. On day 5 all animals (intact and partly ovariectomized) are killed with carbon dioxide, the tubes are preserved and analyzed in the same way. It is then determined, as a percentage, in how many animals ovulation was inhibited.

[3] = tested on: orchidectomized rats; assay: Androgenic / anti-androgenic activity in orchidectomized rats (prostate weight, seminal vesicle); type: in vivo, rat; settings: prostate weight and seminal vesicle
Text: The absence of androgenic as well as anti-androgenic activity in vivo was confirmed by tests performed with orchidectomized rats (change in prostate weight and in the seminal vesicle).

[4] = biological target: T1, androgen receptor (AR) (Homo sapiens, UniProt P10275); assay: Androgen receptor binding
T1 sequence (P10275 1-920): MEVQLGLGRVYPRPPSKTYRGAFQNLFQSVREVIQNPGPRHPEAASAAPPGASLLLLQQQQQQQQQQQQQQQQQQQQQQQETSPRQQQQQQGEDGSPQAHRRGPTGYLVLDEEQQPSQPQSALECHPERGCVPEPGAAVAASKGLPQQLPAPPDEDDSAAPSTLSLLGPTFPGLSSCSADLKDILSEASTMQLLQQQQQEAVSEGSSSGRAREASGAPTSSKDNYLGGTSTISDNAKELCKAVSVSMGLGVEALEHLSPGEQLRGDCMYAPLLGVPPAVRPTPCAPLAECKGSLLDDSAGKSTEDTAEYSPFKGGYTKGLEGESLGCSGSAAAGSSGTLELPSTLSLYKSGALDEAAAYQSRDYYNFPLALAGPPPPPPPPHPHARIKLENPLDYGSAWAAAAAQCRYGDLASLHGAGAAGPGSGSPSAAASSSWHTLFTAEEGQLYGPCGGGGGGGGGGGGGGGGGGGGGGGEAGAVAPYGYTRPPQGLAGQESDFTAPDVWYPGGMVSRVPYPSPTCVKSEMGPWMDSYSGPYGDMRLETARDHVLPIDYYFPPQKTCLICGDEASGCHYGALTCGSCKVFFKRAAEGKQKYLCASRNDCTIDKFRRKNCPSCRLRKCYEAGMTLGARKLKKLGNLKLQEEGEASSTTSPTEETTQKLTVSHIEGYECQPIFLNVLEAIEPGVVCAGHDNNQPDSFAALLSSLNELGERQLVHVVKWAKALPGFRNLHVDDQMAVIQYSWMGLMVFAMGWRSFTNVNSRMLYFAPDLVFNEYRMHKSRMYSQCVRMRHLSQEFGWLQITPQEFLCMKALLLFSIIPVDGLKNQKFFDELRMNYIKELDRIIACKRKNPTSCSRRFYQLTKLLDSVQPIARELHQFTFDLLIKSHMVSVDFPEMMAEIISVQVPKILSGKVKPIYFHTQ

[5] = tested on: Pregnant rats (Wistar Han, SPF); assay: Pregnancy maintenance test in rat; type: in vivo
Text: In rats, castration induces termination of pregnancy. Progestins (combined with estrogens) are capable of maintaining pregnancy in castrated animals. However, the degree of pregnancy maintenance in castrated rats is optimal only in a defined dose range. Therefore, higher as well as lower doses generally induce a weaker effect. Accompanying treatment with defined doses of estrone (E1) increases the pregnancy maintaining effect of progestins.
Pregnant rats (Wistar Han, SPF) of 190 to 220 g (5 to 8 animals per dose) are ovariectomized on day 8 of pregnancy, 2 hours after the first substance administration. From day 8 to day 14, rats are daily treated with test progestin in combination with a standard dose of E1. One day later, animals are killed with carbon dioxide. For each animal, the number of living and dead fetuses is determined according to the heartbeat of the embryos. In case of empty uteri, the number of implantation sites is determined by means of staining with a 10 % ammonium sulfide solution.
S.c. (subcutaneous) application: The test progestin is dissolved in benzyl benzoate/castor oil (1+4 v/v), and the daily dose is administered in a volume of 1 ml/kg body weight.
P.o. (peroral) application: The test progestin is suspended in a carrier liquid (85 mg Myrj^R in 100 ml 0.9 % w/v NaCl solution), and the daily dose is administered in a volume of 2 ml/kg body weight.
I.p. (intraperitoneal) application: The test progestin is dissolved in propylene glycol and charged in miniature osmotic pumps (type 2001, 1.0 µl/h, 7 days), which are placed in the abdominal cavity of the rat.
The standard dose of estrone is 0.005 mg/kg body weight s.c. and is dissolved in benzyl benzoate/castor oil ([…]).
It is determined the pregnancy maintenance per animal [%], the pregnancy maintenance per dose (median of single values) and the ED50 (dose, at which pregnancy is maintained in 50 % of the animals; 100 % corresponds to control animals that are not ovariectomized).

## O=C1OCc2cc(NC(=O)C(O)(CC3(c4cc(C(F)(F)F)ccc4F)CC3)C(F)(F)F)ccc21 (single isomer, unassigned; (+)) [((+)-1), (+)-5-{2-hydroxy-3-[1-(2-fluoro-5-trifluoromethylphenyl)-cyclopropyl]-2-trifluoromethyl-propionylamino}-phthalide]
[1]; Oral (p.o.), 0.001 mg/kg
  McPhail Index: 1.2
[1]; Oral (p.o.), 0.01 mg/kg
  McPhail Index: 2.5
[1]; Oral (p.o.), 0.1 mg/kg
  McPhail Index: 3.0
[1]; sc, Subcutaneous (s.c.)
  minimal effective dose: 1 to 10 µg/kg
[1]; Oral (p.o.)
  minimal effective dose: 1 to 10 µg/kg
[1]; Subcutaneous (s.c.), 0.001 mg/kg
  McPhail Index: 1.0
[1]; Subcutaneous (s.c.), 0.01 mg/kg
  McPhail Index: 2.7
[1]; Subcutaneous (s.c.), 0.1 mg/kg
  McPhail Index: 3.8
[2]; Rattus norvegicus, ovulation inhibition, adult female rats (Table 1-a), read-out: ED50
  ED50: 0.045 mg/kg
[2]; ovulation inhibition, rat, dose 10 µg/kg, days 1 to 4
  % Inhibition: 0%
[2]; rat (Table 1-b), read-out: Ovulation Inhibition (rat) [ED50]
  ED50: 0.04 mg/kg
[3]
  androgenic activity in vivo: no androgenic
  anti-androgenic activity in vivo: no anti-androgenic activity
[4]
  binding affinity for the androgen receptor (AR): moderate
[5]; ovariectomized pregnant rats, with estrone
  Maintenance of pregnancy (rat) [ED50]: 0.012 mg/kg
[5]; rat, times more potent than LNG
  potency compared to levonorgestrel (LNG), pregnancy maintenance test: about 10
[5]; rats, dose 100 times higher than the dose required for maintaining pregnancy
  androgenic activity in pregnancy maintenance test: no androgenic activity
